# Measurements: ChEMBL document CHEMBL1949618, “Synthesis and properties of mRNA cap analogs containing imidodiphosphate moiety--fairly mimicking natural cap structure, yet resistant to enzymatic hydrolysis” (Bioorg Med Chem, 2012)
# pIC50: −log10 of the molar value.
# What was measured:
# [1] = Stability of the compound assessed as human recombinant DcpS -mediated hydrolysis after 2 hrs by HPLC; assay type: ADME
# [2] = target: T1, Eukaryotic translation initiation factor 4E (Oryctolagus cuniculus, UniProt P29338); experiment: Inhibition of eIF4E-mediated mRNA translation in rabbit reticulocyte lysate by luciferase reporter gene assay
# [3] = target: T1, Eukaryotic translation initiation factor 4E; experiment: Inhibition of eIF4E-mediated mRNA translation in rabbit reticulocyte lysate pre-incubated for 60 mins prior to mRNA addition by luciferase reporter gene assay
# [4] = target: Eukaryotic translation initiation factor 4E (Oryctolagus cuniculus) (UniProt P29338); experiment: Inhibition of eIF4E-mediated mRNA translation in rabbit reticulocyte lysate assessed as translation efficiency after 60 mins by luciferase reporter gene assay relative to m7GpppG-capped mRNA
# [5] = target: Eukaryotic translation initiation factor 4E (Homo sapiens) (UniProt P06730); experiment: Binding affinity to recombinant eIF4E by fluorescence quenching titration method
# Homo sapiens = species: Homo sapiens; experiment: Selectivity ratio of Ka for human recombinant DcpS to Ka for eIF4E
# [6] = target: T2, m7GpppX diphosphatase (Homo sapiens) (UniProt Q96C86)
# T2 sequence (whole entry): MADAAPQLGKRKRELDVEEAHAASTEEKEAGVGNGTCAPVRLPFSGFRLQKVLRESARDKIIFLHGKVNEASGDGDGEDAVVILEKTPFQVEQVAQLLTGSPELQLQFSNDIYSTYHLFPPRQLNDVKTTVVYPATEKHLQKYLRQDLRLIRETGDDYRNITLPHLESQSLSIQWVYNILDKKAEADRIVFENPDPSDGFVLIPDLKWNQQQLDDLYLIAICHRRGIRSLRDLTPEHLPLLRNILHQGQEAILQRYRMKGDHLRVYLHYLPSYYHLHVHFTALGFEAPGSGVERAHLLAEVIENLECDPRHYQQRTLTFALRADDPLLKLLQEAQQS
# Description: Binding affinity to human recombinant DcpS by fluorescence quenching titration method
# Chain of Eukaryotic translation initiation factor 4E (Oryctolagus cuniculus) (P29338 whole entry): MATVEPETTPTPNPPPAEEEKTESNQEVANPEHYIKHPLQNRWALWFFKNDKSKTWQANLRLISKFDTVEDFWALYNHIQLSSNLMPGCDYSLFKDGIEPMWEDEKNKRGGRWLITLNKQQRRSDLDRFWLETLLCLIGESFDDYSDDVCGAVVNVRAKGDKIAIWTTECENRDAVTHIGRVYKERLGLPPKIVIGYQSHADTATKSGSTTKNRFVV
# T1 sequence (P29338 whole entry): as above
# Chain of Eukaryotic translation initiation factor 4E (Homo sapiens) (P06730 whole entry): as the sequence (P29338 whole entry) above, with P16T, A17T, D174E counted along it
Compound,fold change (FC) [4],Ka [5] [µM⁻¹],further results
C[n+]1cn([C@@H]2O[C@H](COP(=O)(O)OP(=O)(O)OP(=O)(O)OP(=O)(O)OC[C@H]3O[C@@H](n4cnc5c(=O)[nH]c(N)nc54)[C@H](O)[C@@H]3O)[C@@H](O)[C@H]2O)c2nc(N)[n-]c(=O)c21,,,Drug degradation [1]: Active; pIC50 [2]: 5.30; pIC50 [3]: < 4.70
Nc1nc2c(ncn2[C@@H]2O[C@H](COP(=O)(O)OP(=O)(O)OP(=O)(O)OC[C@H]3O[C@@H](n4cnc5c(N)ncnc54)[C@H](O)[C@@H]3O)[C@@H](O)[C@H]2O)c(=O)[nH]1,0.18,,
CO[C@@H]1[C@H](O)[C@@H](COP(=O)(O)OP(=O)([O-])OP(=O)(O)CP(=O)(O)OC[C@H]2O[C@@H](n3cnc4c(=O)[nH]c(N)nc43)[C@H](O)[C@@H]2O)O[C@H]1n1c[n+](C)c2c(O)nc(N)nc21,1.56,,
CO[C@@H]1[C@H](O)[C@@H](COP(=O)(O)OP(=O)([O-])OP(=O)(O)OC[C@H]2O[C@@H](n3cnc4c(=O)[nH]c(N)nc43)[C@H](O)[C@@H]2O)O[C@H]1n1c[n+](C)c2c(O)nc(N)nc21,,10.8,
CO[C@@H]1[C@H](O)[C@@H](COP(=O)([O-])OP(=O)(O)CP(=O)(O)OC[C@H]2O[C@@H](n3cnc4c(=O)[nH]c(N)nc43)[C@H](O)[C@@H]2O)O[C@H]1n1c[n+](C)c2c(O)nc(N)nc21,1.25,,
CO[C@H]1[C@@H](O)[C@H](n2c[n+](C)c3c(O)nc(N)nc32)O[C@@H]1COP(=O)(O)OP(=O)([O-])OP(=O)(O)OC[C@H]1O[C@@H](n2cnc3c(=O)[nH]c(N)nc32)[C@H](O)[C@@H]1O,1.47,,
C[n+]1cn([C@@H]2O[C@H](COP(=O)(O)CP(=O)(O)OP(=O)([O-])OC[C@H]3O[C@@H](n4cnc5c(=O)[nH]c(N)nc54)[C@H](O)[C@@H]3O)[C@@H](O)[C@H]2O)c2nc(N)nc(O)c21,,6.3,Ratio (Homo sapiens): 37.1
CO[C@@H]1[C@H](O)[C@@H](COP(=O)(O)OP(=O)([O-])OP(=O)(O)OP(=O)(O)OC[C@H]2O[C@@H](n3cnc4c(=O)[nH]c(N)nc43)[C@H](O)[C@@H]2O)O[C@H]1n1c[n+](C)c2c(O)nc(N)nc21,1.56,99.8,Drug degradation [1]: Active
C[n+]1cn([C@@H]2O[C@H](COP(=O)(O)OP(=O)(O)OP(=O)([O-])OP(=O)(O)OC[C@H]3O[C@@H](n4cnc5c(=O)[nH]c(N)nc54)[C@H](O)[C@@H]3O)[C@@H](O)[C@H]2O)c2nc(N)nc(O)c21,,111,
C[n+]1cn([C@@H]2O[C@H](COP(=O)(O)CP(=O)(O)OP(=O)([O-])OP(=O)(O)OC[C@H]3O[C@@H](n4cnc5c(=O)[nH]c(N)nc54)[C@H](O)[C@@H]3O)[C@@H](O)[C@H]2O)c2nc(N)nc(O)c21,,51.8,Ratio (Homo sapiens): 3.1
CO[C@@H]1[C@H](O)[C@@H](COP(=O)(O)CP(=O)(O)OP(=O)([O-])OP(=O)(O)OC[C@H]2O[C@@H](n3cnc4c(=O)[nH]c(N)nc43)[C@H](O)[C@@H]2O)O[C@H]1n1c[n+](C)c2c(O)nc(N)nc21,1.5,,
C[n+]1cn([C@@H]2O[C@H](COP(=O)(S)OP(=O)(O)OP(=O)([O-])OC[C@H]3O[C@@H](n4cnc5c(=O)[nH]c(N)nc54)[C@H](O)[C@@H]3O)[C@@H](O)[C@H]2O)c2nc(N)[nH]c(=O)c21 (stereo partly drawn),,,Ka [6]: 146 µM⁻¹
CO[C@@H]1[C@H](O)[C@@H](COP(=O)(O)CP(=O)(O)OP(=O)([O-])OC[C@H]2O[C@@H](n3cnc4c(=O)[nH]c(N)nc43)[C@H](O)[C@@H]2O)O[C@H]1n1c[n+](C)c2c(O)nc(N)nc21,1.1,,
C[n+]1cn([C@@H]2O[C@H](COP(=O)(O)OP(=O)([O-])OP(=O)(O)OC[C@H]3O[C@@H](n4cnc5c(=O)[nH]c(N)nc54)[C@H](O)[C@@H]3O)[C@@H](O)[C@H]2O)c2nc(N)[nH]c(=O)c21,,,pIC50 [3]: < 4.70
C[n+]1cn([C@@H]2O[C@H](COP(=O)(O)OP(=O)([O-])OP(=O)(O)OC[C@H]3O[C@@H](n4cnc5c(=O)[nH]c(N)nc54)[C@H](O)[C@@H]3O)[C@@H](O)[C@H]2O)c2nc(N)nc(O)c21,1,12.5,Ratio (Homo sapiens): > 1
